Assay results reported in PubChem BioAssay (NCI).
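These data come from cells grown in 96-well plates and exposed to compound for 48 hours at five concentrations. Abbreviation: GI50, concentration required for 50% inhibition of growth. TGI denotes the concentration required for complete inhibition of growth.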

What was measured:
Assay in all cases: NCI tumour cell line growth inhibition, 48 h
[1] = test system: 786-0 renal
[2] = test system: A498 renal
[3] = test system: A549 NSCLC
[4] = test system: ACHN renal
[5] = test system: BT-549 breast
[6] = test system: CAKI-1 renal
[7] = test system: CCRF-CEM leukemia
[8] = test system: COLO 205 colon
[9] = test system: DU-145 prostate
[10] = test system: EKVX NSCLC
[11] = test system: HCC-2998 colon
[12] = test system: HCT-116 colon
[13] = test system: HCT-15 colon
[14] = test system: HL-60(TB) leukemia
[15] = test system: HOP-62 NSCLC
[16] = test system: HOP-92 NSCLC
[17] = test system: HS 578T breast
[18] = test system: HT29 colon
[19] = test system: IGROV1 ovarian
[20] = test system: K-562 leukemia
[21] = test system: KM12 colon
[22] = test system: LOX IMVI melanoma
[23] = test system: M14 melanoma
[24] = test system: MALME-3M melanoma
[25] = test system: MCF7 breast
[26] = test system: MDA-MB-435
[27] = test system: MDA-MB-468 breast
[28] = test system: MOLT-4 leukemia
[29] = test system: NCI-H226 lung
[30] = test system: NCI-H23 lung
[31] = test system: NCI-H460 lung
[32] = test system: NCI-H522 lung
[33] = test system: NCI/ADR-RES ovarian
[34] = test system: OVCAR-3 ovarian
[35] = test system: OVCAR-4 ovarian
[36] = test system: OVCAR-5 ovarian
[37] = test system: OVCAR-8 ovarian
[38] = test system: PC-3 prostate
[39] = test system: RPMI-8226 leukemia
[40] = test system: RXF 393 renal
[41] = test system: SF-268 CNS
[42] = test system: SF-295 CNS
[43] = test system: SF-539 CNS
[44] = test system: SK-MEL-28 melanoma
[45] = test system: SK-MEL-5 melanoma
[46] = test system: SK-OV-3 ovarian
[47] = test system: SN12C renal
[48] = test system: SNB-19 CNS
[49] = test system: SR leukemia
[50] = test system: SW-620 colon
[51] = test system: T-47D breast
[52] = test system: TK-10 renal
[53] = test system: U251 CNS
[54] = test system: UACC-62 melanoma

CC(C)C[C@H](NC(=O)CNC(=O)C[C@H]1O[C@@H]2OC3(C)CC[C@H]4[C@H](C)CC[C@@H]([C@H]1C)[C@@]24O3)B(O)O
GI50 [1]: 4.22 µM | TGI [1]: 53.6 µM | GI50 [2]: 6.87 µM | TGI [2]: 49 µM | GI50 [3]: 3.93 µM | TGI [3]: > 100 µM | GI50 [4]: 3.99 µM | TGI [4]: > 100 µM | GI50 [5]: 537 nM | TGI [5]: 2450 nM | GI50 [6]: 16.8 µM | TGI [6]: > 100 µM | GI50 [7]: 502 nM | TGI [7]: 3.88 µM | GI50 [8]: 4.79 µM | TGI [8]: 22.2 µM | GI50 [9]: 13.5 µM | TGI [9]: > 100 µM | GI50 [10]: 7.94 µM | TGI [10]: 79.6 µM | GI50 [11]: 1920 nM | TGI [11]: 3.46 µM | GI50 [12]: 1460 nM | TGI [12]: 3.7 µM | GI50 [13]: 6.42 µM | TGI [13]: 24.1 µM | GI50 [14]: 514 nM | TGI [14]: 4.15 µM | GI50 [15]: 3.89 µM | TGI [15]: 18.4 µM | GI50 [16]: 3.12 µM | TGI [16]: 9.51 µM | GI50 [17]: 3.5 µM | TGI [17]: 70.6 µM | GI50 [18]: 1670 nM | TGI [18]: 4.63 µM | GI50 [19]: 6.94 µM | TGI [19]: 34.4 µM | GI50 [20]: 3.69 µM | TGI [20]: > 100 µM | GI50 [21]: 2710 nM | TGI [21]: 7.32 µM | GI50 [22]: 1440 nM | TGI [22]: 3.14 µM | GI50 [23]: 1910 nM | TGI [23]: 4.82 µM | GI50 [24]: 1220 nM | TGI [24]: 4.4 µM | GI50 [25]: 1360 nM | TGI [25]: 41 µM | GI50 [26]: 1380 nM | TGI [26]: 3.93 µM | GI50 [27]: 1430 nM | TGI [27]: 3.57 µM | GI50 [28]: 332 nM | TGI [28]: 1920 nM | GI50 [29]: 645 nM | TGI [29]: 2140 nM | GI50 [30]: 3.1 µM | TGI [30]: 11.8 µM | GI50 [31]: 4.72 µM | TGI [31]: 23 µM | GI50 [32]: 1630 nM | TGI [32]: 3.3 µM | GI50 [33]: 40.6 µM | TGI [33]: > 100 µM | GI50 [34]: 1780 nM | TGI [34]: 4.27 µM | GI50 [35]: 5.64 µM | TGI [35]: > 100 µM | GI50 [36]: 2530 nM | TGI [36]: 13.8 µM | GI50 [37]: 3.58 µM | TGI [37]: 17.6 µM | GI50 [38]: 5.47 µM | TGI [38]: 67 µM | GI50 [39]: 272 nM | TGI [39]: 1380 nM | GI50 [40]: 738 nM | TGI [40]: 2180 nM | GI50 [41]: 3.51 µM | TGI [41]: 97.5 µM | GI50 [42]: 2450 nM | TGI [42]: 11.3 µM | GI50 [43]: 1320 nM | TGI [43]: 3.08 µM | GI50 [44]: 1450 nM | TGI [44]: 7.28 µM | GI50 [45]: 1790 nM | TGI [45]: 3.67 µM | GI50 [46]: 6.45 µM | TGI [46]: 35.2 µM | GI50 [47]: 2980 nM | TGI [47]: 12 µM | GI50 [48]: 5.83 µM | TGI [48]: > 100 µM | GI50 [49]: 303 nM | TGI [49]: 1500 nM | GI50 [50]: 2780 nM | TGI [50]: 17.8 µM | GI50 [51]: 2190 nM | TGI [51]: 5.88 µM | GI50 [52]: 3.01 µM | TGI [52]: 20.1 µM | GI50 [53]: 3.61 µM | TGI [53]: 17.6 µM | GI50 [54]: 1920 nM | TGI [54]: 4.61 µM
